In test [1] the test system is mouse C57BL/6J. Description: Multiple oral dose test of YIT 12355 to mouse given indigestible saccharide. It counts as in vivo. Conditions: for Total cell count: DAPI counting method; for Cell count, A. hadrus: quantitative PCR, multiple oral dose; for Occupancy: cell count of YIT 12355/total cell count ×100; for Detected count: mice with A. hadrus detected / mice in group. The protocol: Mice were acclimatized and raised with F2 feed (manufactured by Funabashi Farm Co., Ltd.) for 1 week and then divided into 6 groups such that the average body weight was almost equal among these groups. Then, a control diet (Table 7) was administered thereto for 1 week and replaced with purified feed containing an indigestible material, which was then administered thereto for 2 weeks. A live cell suspension of YIT 12355 was orally administered twice a week a total of 4 times using a probe. At the final day of the test, each mouse was dissected, and the cecal and colonic contents were recovered and examined for an organic acid concentration. Also, the cell count of YIT 12355 in the intestinal tract contents was measured by quantitative PCR, while change in the whole intestinal flora was examined by use of PCR-DGGE (denaturing gradient gel electrophoresis). • Animal used: mouse C57BL/6J (4 weeks old; CLEA Japan, Inc.) • Test period: 3 weeks • Indigestible saccharide used: lactitol and maltitol • Dose of indigestible saccharide: 5% (w/w) • Administered bacterial strain: YIT 12355 • Dose of bacterium: live cell dose: 3.9 to 6.9×10^8 cfu/mouse (administration of a suspension in physiological saline using a probe). Total cell count including dead cells: […] cfu/mouse • Group configuration: 6 groups (5 mice/group) At the 2nd week of administration of the test feed, each mouse was anesthetized with diethyl ether and euthanized by cervical dislocation. After abdominal section, cecal tissues and colonic tissues were excised to recover their contents. The cecal and colonic contents were diluted 10-fold with PBS and subjected to DNA extraction. DNA was extracted by the bead-phenol method from the 10-fold diluted solution of the intestinal tract contents. Specifically, 0.3 g of glass beads (diameter: 0.1 mm), 300 μL of a Tris-SDS solution (a mixed solution of 250 mL of 200 mM Tris-HCl, 80 mM EDTA, pH 9.0, and 50 mL of 10% SDS) and 500 μL of TE saturated phenol were added to 200 μL of the diluted solution of the intestinal tract contents, and the mixture was vigorously shaken for 30 seconds using FASTPREP FP120 cell disruptive equipment (power level: 5.0). After centrifugation at 15,000 rpm for 5 minutes, 400 μL of a phenol/chloroform/isoamyl alcohol (25:24:1) solution was added to 400 μL of the supernatant, and the mixture was shaken for 45 seconds using FASTPREP FP120 cell disruptive equipment (power level: 4.0). After centrifugation at 15,000 rpm for 5 minutes, 25 μL of 3 M sodium acetate (pH 5.4) and 250 μL of isopropanol were added to 250 μL of the supernatant and mixed therewith. After centrifugation at 15,000 rpm for 5 minutes, the supernatant was removed, and 500 μL of 70% ethanol was added thereto, followed by centrifugation again at 15,000 rpm for 5 minutes. The supernatant was removed, and the pellets were dried and dissolved in 1.0 mL of a TE buffer. The obtained DNA solution was diluted 10-fold with purified water to prepare a template DNA solution. For quantitative PCR, 7500 Real-Time PCR System (manufactured by Life Technologies Corp.) was used. The total volume of the reaction solution was set to 20 μL, and SYBR Premix Ex Taq II (Takara Bio Inc.) containing 1.0 μM each of primers, and the template DNA solution were mixed and then subjected to quantitative PCR. The reaction conditions involved heating at 95° C. for 2 minutes, followed by 40 repetitive cycles each involving reactions at 95° C. for 20 seconds, 55° C. for 20 seconds and 72° C. for 50 seconds, and subsequent reaction at 72° C. for 3 minutes. For subsequent Tm value analysis, after reaction at 60° C. for 1 minute, the temperature was elevated at a temperature gradient of 0.2° C./sec to 95° C. during which the fluorescence of SYBR Green I was measured to measure the dissociation temperature (Tm) of the double strand of the amplification product. […]

For test [2], the system named is mouse C57BL/6J. The test is described as follows: Single oral dose test of YIT 12355 to mouse given indigestible saccharide. It counts as in vivo. The following applies: cecum, single oral dose. The protocol:
Mice were acclimatized and raised with F2 feed for 1 week and then divided into 4 groups such that the average body weight was almost equal among these groups. A control diet (Table 12) was administered thereto for 1 week. Then, the control diet was administered to the control group (−/− group) and the AH/− group for 2 weeks while purified feed containing maltitol (MAL-containing diet) was administered to the −/MAL group and the AH/MAL group for 2 weeks. A live cell suspension of YIT 12355 was administered at a single dose using a probe after the administration of the control diet for 1 week. At the final day of the test, each mouse was dissected, and the cecal contents were recovered. The cecal contents were subjected to the cell count measurement of YIT 12355. • Test material: Maltitol (5% mixed feed administration) • Administered bacterial strain: YIT 12355 • Animal species: Mouse C57BL/6J (4 weeks old; CLEA Japan, Inc.) • Group configuration: 7 mice×4 groups The bacterial solution (viable count: 3.1×10^9 cfu/mL, total cell count: 1.9×10^10 cells/mL) prepared in the preceding paragraph 2) was orally administered at a single dose of 0.2 mL (viable count: 6.2×10^8 cfu/mouse, total cell count: 3.8×10^9 cells/mouse) to each mouse using a probe. To the control group and the −/MAL group, 0.2 mL of physiological saline was administered instead of the bacterial solution. […] Then, the cecal contents were recovered. The cecal contents were diluted 10-fold with PBS and subjected to DNA extraction. DNA was extracted by the bead-phenol method described in the paragraph 4)a) of Example 5 from the 10-fold diluted solution of the intestinal tract contents. The cell count of YIT 12355 was measured by quantitative PCR using the obtained DNA as a template and the bacterial species-specific primers described in the paragraph 4)a) of Example 5. After fixation of a portion of the 10-fold diluted solution of the intestinal tract contents in a 4% solution of paraformaldehyde in PBS, the total cell count was measured by the DAPI counting method. The cell count of YIT 12355 was divided by the total cell count to calculate an occupancy (%). (Occupancy of YIT 12355) (%)=(Cell count of YIT 12355/Total cell count)×100 (Expression 5)

The nature of test [3]: Turbidity (OD660) after anaerobic culture of bacterial strains in PYGA, PYSA or PYXA medium. The protocol: (§1) A frozen stock solution of each bacterial strain (a 10% (w/v) skim milk-2% sodium glutamate solution in which bacterial cells were suspended) (cell count: 2.0 to 5.5×10^10 cells/mL) was thawed, and the solution was inoculated at 1% to 4 mL of a PY liquid medium supplemented with 33 mM sodium acetate and 0.5 (w/v) % glucose (PYGA medium), followed by anaerobic culture at 37° C. for 24 hours. After the culture, the culture solution was inoculated at 1% to a fresh PYGA medium, followed by anaerobic culture at 37° C. for 24 hours. After the culture, the turbidity (OD660) of the culture solution was measured. Then, the culture solution was inoculated at 1% to a PY medium containing 0.5 (w/v) % L-sorbose or D-xylitol and 33 mM sodium acetate (the medium containing L-sorbose: PYSA, and the medium containing D-xylitol: PYXA), followed by anaerobic culture at 37° C. for 24 hours. Then, the turbidity (OD660) was measured.

Test [4] is described as follows: Biochemical properties: saccharide fermentability (API-ZYM, Rapid ID32A API, API KENKI 20A). Further details: key: +: positive reaction; −: negative reaction; +^w: weak reaction. From the text: (§2) Commercially available API-ZYM, Rapid ID32A API, and API KENKI 20A (SYSMEX bioMerieux Co., Ltd.) were used in the testing of biochemical properties of various bacterial strains. The testing method followed the product manuals.

Test [5] can be described thus: Production of butyrate by each bacterial strain from L-sorbose and D-xylitol (ion-exclusion HPLC). Conditions: 24 hours, minus PYA blank. The protocol: as §1
After the completion of the culture, the organic acid concentration in the culture solution was quantified by ion-exclusion HPLC. In this operation, a culture solution in a PY medium supplemented with sodium acetate but without L-sorbose or D-xylitol (PYA medium) was used as a blank.
(HPLC Analysis Conditions) • Eluent: 15 mM perchloric acid-7% acetonitrile • pH adjuster: 15 mM perchloric acid-60 mM • tris(hydroxymethyl)aminomethane-7% acetonitrile • Separation column: Organic acid analysis column RSpak KC- • 811×2 (manufactured by Showa Denko K.K.) • Column temperature: 42° C. • Injected sample volume: 10 μL • Flow rate: 1.0 mL/min • Analysis time: 35 min • Detector: Waters 432 electric conductivity detector • Cell temperature: 45° C.
The amount of butyrate produced was calculated according to (Expression 1). Amount of butyrate produced=(Amount of butyrate produced by culture for 24 hours in a PYSA or PYXA medium)−(Amount of butyrate produced by culture for 24 hours in a PYA medium) (Expression 1)

The nature of test [6]: Biochemical properties: enzymatic activity (API-ZYM, Rapid ID32A API, API KENKI 20A). The arrangement: key: +: positive reaction; −: negative reaction; +^w: weak reaction.
Text: as §2

In the case of `OC[C@@H](O)[C@@H](O[C@@H]1O[C@H](CO)[C@H](O)[C@H](O)[C@H]1O)[C@H](O)[C@@H](O)CO` [—/LAC group, lactitol], in test [1] (Cecal contents), the Total cell count was 11.1 ± 0.1 log10 cells/g contents; the “Cell count, A. hadrus” value was found to be 7.2 log10 cells/g contents; the Occupancy amounted to 0.014%; the Detected count result is listed as “(1/5)”. For the same compound, in test [1] (Colonic contents), the Total cell count was determined as 11.1 ± 0.1 log10 cells/g contents, the Occupancy is listed as 0.000% and the Detected count result was “(0/5)”.
For `OC[C@@H](O)[C@@H](O[C@H]1O[C@H](CO)[C@@H](O)[C@H](O)[C@H]1O)[C@H](O)[C@@H](O)CO` [—/MAL group, maltitol], the Total cell count in test [1] (Cecal contents) is listed as 11.0 ± 0.1 log10 cells/g contents; in test [1] (Colonic contents), 11.0 ± 0.1 log10 cells/g contents; in test [2] (DAPI counting method), 10.9 ± 0.1 log10 (cells/g contents). In addition, the “Cell count, A. hadrus” value in test [1] (Cecal contents) came out at 6.1 log10 cells/g contents. Further, the Occupancy in test [1] (Cecal contents) is given as 0.001%; in test [1] (Colonic contents) it was 0.000%; in test [2] (ratio to total cell count) it was 0.0%. Also, the Detected count entry in test [1] (Cecal contents) is “(1/5)”; in test [1] (Colonic contents), “(0/5)”. Moreover, the “Cell count, A. hadrus YIT 12355” value in test [2] (quantitative PCR) is <6.0 log10 (cells/g contents).
In the case of “Anaerostipes hadrus (Eubacterium hadrum) YIT 10092^T (DSM 3319^T) [reference compound]”, the “Turbidity (OD660)” value in test [3] (after anaerobic culture at 37° C. for 24 hours in PYGA liquid medium) turned out to be 2.80. The “Turbidity (OD660)” value in test [3] (anaerobic culture at 37° C. for 24 hours of 1% inoculum in PYSA (L-sorbose)) was 2.56. Moreover, the “Turbidity (OD660)” value in test [3] (anaerobic culture at 37° C. for 24 hours of 1% inoculum in PYXA (D-xylitol)) stood at 0.11. In test [4], the Aesculin entry is given as “−”, the D-Cellobiose entry is listed as “+”, the D-Mannitol result is “+” and the D-Raffinose entry is on record as “−”. In test [4], the D-Xylose entry is “+”, the Glycerol result is reported as “−”, the L-Arabinose result was “+” and the L-Rhamnose entry was “−”. For the same compound, in test [4], the L-Sorbitol entry is “+”, the Mallose entry is reported as “+^w” and the Salicin entry was “+”. In addition, the “Amount of butyrate produced” value in test [5] (D-Xylitol 0.5 (w/v) %, PYXA medium) is -0.1 mmol/L. Moreover, the “Amount of butyrate produced” value in test [5] (L-Sorbose 0.5 (w/v) %, PYSA medium) came out at 9.7 mmol/L. For the same compound, in test [6], the Acid phosphatase result is “+”, the Alkaline phosphatase result was “−”, the “Esterase (C4)” value is recorded as “+” and the Naphthol-AS-B1-phosphohydrolase result is recorded as “+”. Moreover, in test [6], the α-Glucosidase entry is recorded as “−”, the β-Galactosidase entry was “+” and the β-Galactosidase-6-phosphate result was “+”.
